Results published in US20240101570A1 (AMGEN INC., priority 2020, published 2024).

Key:
HCT116 WT cells = assay: HCT116 WT cell proliferation / viability (CellTiter-Glo, 6 days); type: cell-based; conditions: Homo sapiens, HCT-116, 144 h, HCT116 WT cells, 6 days, CellTiter-Glo; read-out: HCT-116 WT IC50
How it was run: (§1)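 Viability read by CellTiter-Glo after 6-day compound exposure of MTAP-null and wild-type HCT116 cells grown in RPMI 1640 with 10% FBS. Dosing used 1:3 steps from 1 or 10 μM (8-9 points) or 1:2 steps from 10 or 50 μM (22 points); IC50 taken where fitted curve crosses 50% of control.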

HCT116 MTAP null cells = assay: HCT116 MTAP null cell proliferation / viability (CellTiter-Glo, 6 days); type: cell-based; conditions: HCT116-MTAP null, 144 h, HCT116 MTAP null cells, 6 days, CellTiter-Glo; read-out: HCT-116 MTAP null IC50
How it was run: as §1

| IC50 (HCT116 WT cells) | IC50 (HCT116 MTAP null cells) | SMILES |
| --- | --- | --- |
| 8310 nM | 137 nM | C[C@@H](c1ccc(C(F)(F)F)nn1)N(C(=O)c1cc2c(cc1Cl)nc(N)c1cnn(C)c12)C1CC1 (single isomer, unassigned) [Example 880] |
| 370 nM | 7 nM | C[C@H](c1ccc(C(F)(F)F)nn1)N(C(=O)c1cc2c(cc1Cl)nc(N)c1cnn(C)c12)C1CC1 (single isomer, unassigned) [Example 881] |
| 23600 nM | 570 nM | C[C@H]1OCc2c1c(N)nc1cnc(C(=O)N(Cc3ccc(C#N)cn3)C3CC3)cc21 [Example 316, (3R)-4-amino-N-((5-cyano-2-pyridinyl)methyl)-N-cyclopropyl-3-methyl-1,3-dihydrofuro[3,4-c][1,7]naphthyridine-8-carboxamide] |
| 49700 nM | 432 nM | C[C@H]1OCc2c1c(N)nc1cnc(C(=O)N(C)Cc3ccc(C(F)(F)F)nn3)cc21 [Example 317, (3R)-4-amino-N,3-dimethyl-N-((6-(trifluoromethyl)-3-pyridazinyl)methyl)-1,3-dihydrofuro [3,4-c][1,7]naphthyridine-8-carboxamide] |
| 36300 nM | 4930 nM | C[C@@H]1OCc2c1c(N)nc1cnc(C(=O)N(Cc3ccc(C(F)(F)F)cn3)C3CC3)cc21 [Example 318, (3S)-4-amino-N-cyclopropyl-3-methyl-N-((5-(trifluoromethyl)-2-pyridinyl)methyl)-1,3-dihydrofuro[3,4-c][1,7]naphthyridine-8-carboxamide] |
| > 50000 nM | 27700 nM | C[C@@H]1OCc2c1c(N)nc1cnc(C(=O)N(C)Cc3ccc(C(F)(F)F)nn3)cc21 [Example 319, (3S)-4-amino-N,3-dimethyl-N-((6-(trifluoromethyl)-3-pyridazinyl)methyl)-1,3-dihydrofuro[3,4-c][1,7]naphthyridine-8-carboxamide] |
| 15800 nM | 303 nM | C[C@H]1OCc2c1c(N)nc1cnc(C(=O)N(Cc3ccc(C(F)(F)F)cn3)CC(F)(F)F)cc21 [Example 320, (3R)-4-amino-3-methyl-N-(2,2,2-trifluoroethyl)-N-((5-(trifluoromethyl)-2-pyridinyl)methyl)-1,3-dihydrofuro [3,4-c][1,7]naphthyridine-8-carboxamide] |
| 3790 nM | 226 nM | Nc1nc2ncc(C(=O)N(Cc3ccc(C(F)(F)F)cn3)CC3CC3)cc2c2c1COC2 [Example 321, 4-amino-N-(cyclopropylmethyl)-N-((5-(trifluoromethyl)-2-pyridinyl)methyl)-1,3-dihydrofuro[3,4-c][1,8]naphthyridine-8-carboxamide] |
| 1030 nM | 81 nM | COC[C@@H](C)N(Cc1ccc(C(F)(F)F)cn1)C(=O)c1cnc2nc(N)c3c(c2c1)COC3 [Example 322, 4-amino-N-((2R)-1-methoxy-2-propanyl)-N-((5-(trifluoromethyl)-2-pyridinyl)methyl)-1,3-dihydrofuro[3,4-c][1,8]naphthyridine-8-carboxamide] |
| 15000 nM | 358 nM | CN(Cc1ccc(C2CC2)cn1)C(=O)c1ccc2nc(N)c3c(c2c1)COC3 [Example 323, 4-amino-N-((5-cyclopropyl-2-pyridinyl)methyl)-N-methyl-1,3-dihydrofuro[3,4-c]quinoline-8-carboxamide] |
| 51600 nM | 908 nM | CN(Cc1ccc(C#N)cn1)C(=O)c1ccc2nc(N)c3c(c2c1)COC3 [Example 324, 4-amino-N-((5-cyano-2-pyridinyl)methyl)-N-methyl-1,3-dihydrofuro[3,4-c]quinoline-8-carboxamide] |
| 2280 nM | 73 nM | N#Cc1ccc(CN(CC2CC2)C(=O)c2ccc3nc(N)c4c(c3c2)COC4)nc1 [Example 325, 4-amino-N-((5-cyano-2-pyridinyl)methyl)-N-(cyclopropylmethyl)-1,3-dihydrofuro[3,4-c]quinoline-8-carboxamide] |
| 1280 nM | 19 nM | C[C@H]1OCc2c1c(N)nc1ccc(C(=O)N(Cc3ccc(Br)nn3)CC3CC3)cc21 [Example 326, (3R)-4-amino-N-((6-bromo-3-pyridazinyl)methyl)-N-(cyclopropylmethyl)-3-methyl-1,3-dihydrofuro[3,4-c]quinoline-8-carboxamide] |
| > 10000 nM | 811 nM | CN(Cc1ccc(Br)nn1)C(=O)c1ccc2nc(N)c3c(c2c1)COC3 [Example 327, 4-amino-N-((6-bromo-3-pyridazinyl)methyl)-N-methyl-1,3-dihydrofuro[3,4-c]quinoline-8-carboxamide] |
| 19400 nM | 129 nM | C[C@H]1OCc2c1c(N)nc1ccc(C(=O)N(C)Cc3ccc(Br)cn3)cc21 [Example 328, (3R)-4-amino-N-((5-bromo-2-pyridinyl)methyl)-N,3-dimethyl-1,3-dihydrofuro[3,4-c]quinoline-8-carboxamide] |
| 160 nM | 22 nM | C[C@H](c1ncccn1)N(Cc1ccc(C2CC2)nn1)C(=O)c1ccc2nc(N)c3c(c2c1)CO[C@@H]3C [Example 329, (3R)-4-amino-N-((6-cyclopropyl-3-pyridazinyl)methyl)-3-methyl-N-((1R)-1-(2-pyrimidinyl)ethyl)-1,3-dihydrofuro[3,4-c]quinoline-8-carboxamide] |

Continued, compound first:

| SMILES | IC50 (HCT116 WT cells) | IC50 (HCT116 MTAP null cells) |
| --- | --- | --- |
| Nc1nc2ccc(C(=O)N(Cc3ccc(C(F)(F)F)cn3)CC3CC3)cc2c2c1COC2 [Example 300, 4-amino-N-(cyclopropylmethyl)-N-[[5-(trifluoromethyl)-2-pyridyl]methyl]-1,3-dihydrofuro[3,4-c]quinoline-8-carboxamide] | 1340 nM | 41 nM |
| CC(C)N(Cc1ccc(C#N)cn1)C(=O)c1ccc2nc(N)c3c(c2c1)COC3 [Example 301, 4-amino-N-((5-cyano-2-pyridinyl)methyl)-N-(2-propanyl)-1,3-dihydrofuro[3,4-c]quinoline-8-carboxamide] | 11000 nM | 259 nM |
| CC(C)N(Cc1ccc(C2CC2)nc1)C(=O)c1ccc2nc(N)c3c(c2c1)COC3 [Example 302, 4-amino-N-((6-cyclopropyl-3-pyridinyl)methyl)-N-(2-propanyl)-1,3-dihydrofuro[3,4-c]quinoline-8-carboxamide] | 17300 nM | 900 nM |
| COC[C@@H](C)N(Cc1ccc(Cl)nn1)C(=O)c1ccc2nc(N)c3c(c2c1)COC3 [Example 305, 4-amino-N-((6-chloro-3-pyridazinyl)methyl)-N-((2R)-1-methoxy-2-propanyl)-1,3-dihydrofuro[3,4-c]quinoline-8-carboxamide] | 861 nM | 27 nM |
| COC[C@@H](C)N(Cc1ccc(Cl)nn1)C(=O)c1cc2c3c(c(N)nc2cn1)COC3 [Example 306, 4-amino-N-((6-chloro-3-pyridazinyl)methyl)-N-((2R)-1-methoxy-2-propanyl)-1,3-dihydrofuro[3,4-c][1,7]naphthyridine-8-carboxamide] | 7990 nM | 217 nM |
| COC[C@@H](C)N(Cc1ccc(Cl)nn1)C(=O)c1ccc2nc(N)c3c(c2c1)CO[C@@H]3C [Example 307, (3R)-4-amino-N-((6-chloro-3-pyridazinyl)methyl)-N-((2R)-1-methoxy-2-propanyl)-3-methyl-1,3-dihydrofuro[3,4-c]quinoline-8-carboxamide] | 471 nM | 18 nM |
| COC[C@@H](C)N(Cc1ccc(Cl)nn1)C(=O)c1cc2c3c(c(N)nc2cn1)[C@@H](C)OC3 [Example 308, (3R)-4-amino-N-((6-chloro-3-pyridazinyl)methyl)-N-((2R)-1-methoxy-2-propanyl)-3-methyl-1,3-dihydrofuro[3,4-c][1,7]naphthyridine-8-carboxamide] | 5100 nM | 124 nM |
| C[C@@H]1OCc2c1c(N)nc1cnc(C(=O)N(Cc3ccc(C(F)(F)F)cn3)C34CC(C3)C4)cc21 [Example 309, (3S)-4-amino-N-(bicyclo[1.1.1]pentan-1-yl)-3-methyl-N-((5-(trifluoromethyl)-2-pyridinyl)methyl)-1,3-dihydrofuro[3,4-c][1,7]naphthyridine-8-carboxamide] | > 10000 nM | 4000 nM |
| CC(C)N(Cc1ccc(C(F)(F)F)cn1)C(=O)c1cc2c3c(c(N)nc2cn1)[C@@H](C)OC3 [Example 310, (3R)-4-amino-3-methyl-N-(2-propanyl)-N-((5-(trifluoromethyl)-2-pyridinyl)methyl)-1,3-dihydrofuro[3,4-c][1,7]naphthyridine-8-carboxamide] | 4050 nM | 71 nM |
| C[C@H]1OCc2c1c(N)nc1cnc(C(=O)N(Cc3ccc(C(F)(F)F)cn3)C34CC(C3)C4)cc21 [Example 311, (3R)-4-amino-N-(bicyclo[1.1.1]pentan-1-yl)-3-methyl-N-((5-(trifluoromethyl)-2-pyridinyl)methyl)-1,3-dihydrofuro[3,4-c][1,7]naphthyridine-8-carboxamide] | 2200 nM | 56 nM |
| C[C@H]1OCc2c1c(N)nc1cnc(C(=O)N(C)Cc3ccc(C#N)cn3)cc21 [Example 312, (3R)-4-amino-N-((5-cyano-2-pyridinyl)methyl)-N,3-dimethyl-1,3-dihydrofuro[3,4-c][1,7]naphthyridine-8-carboxamide] | > 10000 nM | 1090 nM |
| CC(C)N(Cc1ccc(C(F)(F)F)nn1)C(=O)c1cc2c3c(c(N)nc2cn1)[C@@H](C)OC3 [Example 313, (3R)-4-amino-3-methyl-N-(2-propanyl)-N-((6-(trifluoromethyl)-3-pyridazinyl)methyl)-1,3-dihydrofuro [3,4-c][1,7]naphthyridine-8-carboxamide] | 3680 nM | 200 nM |
| C[C@H]1OCc2c1c(N)nc1cnc(C(=O)N(Cc3ccc(C(F)(F)F)cn3)C3CC3)cc21 [Example 315, (3R)-4-amino-N-cyclopropyl-3-methyl-N-((5-(trifluoromethyl)-2-pyridinyl)methyl)-1,3-dihydrofuro[3,4-c][1,7]naphthyridine-8-carboxamide] | 11100 nM | 137 nM |
